Series [1] concerns Respiratory syncytial virus. The series is described as follows: Antiviral activity against RSV A2 in VERO76 cells assessed as reduction of plaque number by MTT method. It is filed as functional, organism-based. To be noted: human respiratory syncytial virus, A2, Vero 76.
Series [2] deals with Bovine viral diarrhea virus 1. Nature of the series: Antiviral activity against BVDV NADL in MDBK cells assessed as protection from virus-induced cytopathogenicity by MTT method. It is filed as functional, organism-based. To be noted: Bovine viral diarrhea virus isolates and strains. (In general: Cytopathic effects are the visible damage that an infection or toxin causes in cultured cells.)

In the next series the test system is Yellow fever virus. Nature of the series: Antiviral activity against YFV in BHK cells assessed as protection from virus-induced cytopathogenicity by MTT method. It is filed as functional, organism-based.
The nature of series [3]: Cytotoxicity against human MT4 cells after 96 hrs by MTT method. It is filed as cell-based. A general note: Tetrazolium assays rely on reduction of a dye to a coloured formazan, in cell work by metabolically active cells.
The test system of series [4] is Human immunodeficiency virus 1. Nature of the series: Antiviral activity against HIV1. It is filed as functional, organism-based.
For a further series, the system named is Poliovirus 1. The series is described as follows: Antiviral activity against Human poliovirus 1 Sabin. It is filed as functional.
For the next series, the system named is Vaccinia virus. Nature of the series: Antiviral activity against vaccinia virus. It is filed as functional, organism-based. To be noted: Orthopoxvirus vaccinia.
Another series concerns Reovirus sp. Nature of the series: Antiviral activity against Reovirus. It is filed as functional, organism-based.
Series [5] has as its system Vesicular stomatitis virus. The series is described as follows: Antiviral activity against vesicular stomatitis virus. It is filed as functional, organism-based.

The source made the active and inactive calls. No rule for the calls is given here.

In general, EC50 refers to the concentration needed to bring the measured effect to its halfway point. By CC50 is commonly meant the concentration that lowers cell viability or growth by half. The low end stands for greater toxicity to the cells, the high end for lower toxicity to the cells.

In the case of `O=c1ccc2ccc(O)c(CN3CCOCC3)c2o1`, the EC50 (in [1]; in series [2]; in the series on Yellow fever virus) was more than 100 µM throughout. The CC50 at 96 h in series [3] is more than 100 µM. Moreover, the result (in series [4]; with Poliovirus 1; with Vaccinia virus; with Reovirus sp.; in series [5]) was inactive.

Regarding `COCCN(CCOC)c1oc2ccc3ccccc3c2c(=O)c1Cc1c(OC(C)=O)ccc2c(C)cc(=O)oc12`, the results for the EC50 (in series [1]; in series [2]; with Yellow fever virus) were not below 100 µM, more than 100 µM and more than 100 µM, respectively. The same compound returned a CC50 at 96 h in series [3] of more than 100 µM. Moreover, the outcome (in series [4]; in the series on Poliovirus 1; in the series on Vaccinia virus; with Reovirus sp.; in [5]) was inactive.

With `CC(=O)Oc1ccc2c(C)cc(=O)oc2c1Cc1c(C)n(C)c2ccccc12`, the EC50 in series [1] was 26 µM; in series [2] it was more than 40 µM; with Yellow fever virus, more than 58 µM. Moreover, in series [3], the CC50 at 96 h was found to be 24 µM. Besides, the result (in series [4]; with Poliovirus 1; with Vaccinia virus; with Reovirus sp.; in [5]) was inactive.

On to `COCCN(CCOC)c1oc2cc(OC)ccc2c(=O)c1Cc1c(OC(C)=O)ccc2c(C)cc(=O)oc12`, for which the EC50 in series [1] was 5 µM; in series [2], 61 µM; in the series on Yellow fever virus it was more than 100 µM. Also, the CC50 at 96 h in [3] was more than 100 µM. Also, the result (in [4]; with Poliovirus 1; in the series on Vaccinia virus; in the series with Reovirus sp.; in series [5]) was inactive.

Take `CC(=O)c1ccc(N2CCN(Cc3c(O)ccc4ccc(=O)oc34)CC2)cc1`: the EC50 (in [1]; in [2]; in the series on Yellow fever virus) was more than 100 µM throughout. In series [3], the CC50 at 96 h was determined as 18 µM. Besides, the outcome (in series [4]; in the series on Poliovirus 1; in the series on Vaccinia virus; in the series on Reovirus sp.; in series [5]) was inactive.

With `CC(=O)Oc1ccc2ccc(=O)oc2c1Cc1c(C)[nH]c2ccccc12`, the EC50 in [1] is more than 100 µM; in series [2] it was more than 86 µM; with Yellow fever virus, more than 73 µM. In addition, the CC50 at 96 h in series [3] turned out to be 62 µM. Besides, the result (in series [4]; in the series on Poliovirus 1; with Vaccinia virus; in the series with Reovirus sp.; in [5]) was inactive.

Consider `C[C@@]1(O)[C@H](O)[C@@H](CO)O[C@H]1n1cnc2c(=O)[nH]c(N)nc21` [2'-B-METHYL-GUANOSINE], for which the EC50 in [1] was more than 100 µM; in [2], 4 µM; in the series with Yellow fever virus, 1 µM. The CC50 at 96 h in [3] is more than 100 µM. Further, the result (in [4]; with Poliovirus 1; in the series with Vaccinia virus; in the series with Reovirus sp.; in series [5]) was inactive.

Consider `CCN(CC)c1oc2cc(OC(C)=O)ccc2c(=O)c1Cc1c(OC(C)=O)ccc2c(C)cc(=O)oc12`, for which the results for the EC50 (in [1]; in series [2]; in the series on Yellow fever virus) were 11 µM, more than 100 µM and more than 100 µM, respectively. This compound also gave a CC50 at 96 h in series [3] of 44 µM. Besides, the result (in series [4]; in the series with Poliovirus 1; with Vaccinia virus; in the series on Reovirus sp.; in series [5]) was inactive.

On to `Cc1cc(=O)oc2c(CN3CCOCC3)c(O)ccc12`, for which the EC50 (in series [1]; in series [2]; in the series on Yellow fever virus) was more than 100 µM throughout. Moreover, the CC50 at 96 h in series [3] is more than 100 µM. Moreover, the result (in series [4]; in the series on Poliovirus 1; in the series on Vaccinia virus; in the series on Reovirus sp.; in [5]) was inactive.

Take `O=c1ccc2ccc(O)c(CN3CCN(Cc4ccc5c(c4)OCO5)CC3)c2o1`: the EC50 (in series [1]; in series [2]; with Yellow fever virus) was more than 100 µM throughout. Moreover, the midpoint of cytotoxicity in [3], the CC50 at 96 h, lay at 13 µM. In addition, the outcome (in [4]; in the series on Poliovirus 1; in the series on Vaccinia virus; in the series with Reovirus sp.; in [5]) was inactive.

As to `O=c1ccc2ccc(O)c(CN3CCN(C/C=C/c4ccccc4)CC3)c2o1`, the EC50 in series [1] was more than 100 µM; in series [2], more than 24 µM; in the series with Yellow fever virus, more than 59 µM. The compound also had a CC50 at 96 h in series [3] of 5 µM. Further, the result (in series [4]; in the series on Poliovirus 1; in the series with Vaccinia virus; with Reovirus sp.; in series [5]) was inactive.

Regarding `Cc1cc(=O)oc2c(CN3CCN(C)CC3)c(O)ccc12`, the EC50 (in series [1]; in [2]; in the series with Yellow fever virus) was more than 100 µM each time. The same compound registered a CC50 at 96 h in series [3] of more than 100 µM. Also, the outcome (in [4]; in the series on Poliovirus 1; in the series on Vaccinia virus; in the series on Reovirus sp.; in [5]) was inactive.

As to `Cc1cc(=O)oc2c(CN(C)CC(=O)O)c(O)ccc12`, the EC50 (in series [1]; in series [2]; with Yellow fever virus) was more than 100 µM throughout. The compound further came in with a CC50 at 96 h in series [3] of more than 100 µM. Also, the outcome (in series [4]; in the series on Poliovirus 1; with Vaccinia virus; in the series on Reovirus sp.; in series [5]) was inactive.

Regarding `CC(=O)Oc1ccc2c(C)cc(=O)oc2c1Cc1c(N(C)C)oc2ccc3ccccc3c2c1=O`, the figures for the EC50 (in series [1]; in series [2]; in the series on Yellow fever virus) were more than 13 µM, more than 100 µM and more than 100 µM, respectively. Further, in series [3], the CC50 at 96 h is more than 100 µM. Further, the outcome (in series [4]; with Poliovirus 1; in the series with Vaccinia virus; with Reovirus sp.; in series [5]) was inactive.

With `CC(=O)Oc1ccc2c(C)cc(=O)oc2c1Cc1c(-c2ccccc2)[nH]c2ccccc12`, the EC50 (in series [1]; in series [2]; with Yellow fever virus) was more than 100 µM throughout. The compound further showed a CC50 at 96 h in [3] of more than 100 µM. The result (in series [4]; in the series on Poliovirus 1; with Vaccinia virus; in the series on Reovirus sp.; in series [5]) was inactive.

For `COCCN(CCOC)c1oc2cc(OC)ccc2c(=O)c1Cc1c(OC(C)=O)ccc2ccc(=O)oc12`, the values for the EC50 (in series [1]; in [2]; with Yellow fever virus) were 7 µM, more than 100 µM and more than 100 µM, respectively. The compound further returned a CC50 at 96 h in [3] of more than 100 µM. Further, the result (in [4]; with Poliovirus 1; in the series on Vaccinia virus; in the series on Reovirus sp.; in [5]) was inactive.

For the compound `CC(=O)Oc1ccc2ccc(=O)oc2c1Cc1c(-c2ccccc2)[nH]c2ccccc12`, the EC50 in series [1] was more than 100 µM; in [2], more than 57 µM; with Yellow fever virus it was more than 100 µM. This compound registered a CC50 at 96 h in series [3] of more than 100 µM. In addition, the outcome (in series [4]; in the series on Poliovirus 1; in the series with Vaccinia virus; in the series on Reovirus sp.; in series [5]) was inactive.

Regarding `Cc1cc(=O)oc2c(CN3CCN(Cc4ccc5c(c4)OCO5)CC3)c(O)ccc12`, the values for the EC50 (in series [1]; in series [2]; in the series with Yellow fever virus) were more than 100 µM, 75 µM and more than 100 µM, respectively. Besides, the midpoint of cytotoxicity in series [3], the CC50 at 96 h, lay at 72 µM. In addition, the result (in [4]; in the series with Poliovirus 1; in the series on Vaccinia virus; in the series on Reovirus sp.; in series [5]) was inactive.

As to `CC(=O)Oc1ccc2ccc(=O)oc2c1Cc1c(N(C)C)oc2ccc3ccccc3c2c1=O`, the figures for the EC50 (in series [1]; in series [2]; in the series on Yellow fever virus) were more than 30 µM, more than 48 µM and more than 52 µM, respectively. Also, it took 80 µM to reach half-maximal cytotoxicity in [3] (CC50 at 96 h). Further, the outcome (in [4]; in the series with Poliovirus 1; in the series with Vaccinia virus; in the series on Reovirus sp.; in series [5]) was inactive.

In the case of `O=C(Oc1ccc2ccc(=O)oc2c1CN1CCc2ccccc2C1)c1ccccc1`, the EC50 in [1] is 1 µM; in series [2], more than 100 µM; in the series with Yellow fever virus, more than 100 µM. In addition, in series [3], the CC50 at 96 h is more than 100 µM. Further, the outcome (in series [4]; in the series with Poliovirus 1; in the series on Vaccinia virus; in the series on Reovirus sp.; in [5]) was inactive.

`CCCOc1ccc2ccc(=O)oc2c1CN1CCN(C/C=C/c2ccccc2)CC1`: the EC50 in series [1] was more than 100 µM; in [2], 15 µM; in the series on Yellow fever virus it was more than 48 µM. Moreover, the CC50 at 96 h in series [3] came to 16 µM. For the same compound, the outcome (in series [4]; with Poliovirus 1; in the series with Vaccinia virus; in the series with Reovirus sp.; in [5]) was inactive.

The values above are taken from ChEMBL document CHEMBL1144007, “Activity of Mannich bases of 7-hydroxycoumarin against Flaviviridae” (Bioorg Med Chem, 2008).
